# Measured values as given in patent US10143711B2, “Pathways to generate hair cells” (Massachusetts Eye & Ear Infirmary, priority 2008, dated 2018).
# Assays:
# Atoh1 and β-catenin = test: β-catenin and Atoh1 expression in bone marrow derived MSCs on Notch inhibition and β-catenin activation; assay type: cell-based, human
# Excerpt: Notch signaling was inhibited using a γ-secretase inhibitor (DAPT) and β-catenin was activated using a GSK3β inhibitor (GSKi). […] Altered Notch activity was confirmed using CBF-1 luciferase reporter.
# Mesenchymal stem cells (MSCs) were isolated from human bone marrow using the methods described by Jeon et al. (Mol. Cell. Neurosci., 34(1):59-68, (2007)). Cells were expanded once before use and cultured in MEM-α cell culture media (Sigma-Aldrich) supplemented with 9% horse serum, 9% fetal calf serum, and penicillin (100 U/mL) and streptomycin (100 μg/mL).
# Atoh1 = test: Gene silencing with siRNA in neural progenitor cells and Neuro2a (RT-PCR); assay type: cell-based, mouse; details: 200 nM siRNA; for decrease of Atoh1 expression: harvested after 48 hours, neural progenitor cells and Neuro2a
# Experimental: The data shown in Examples 1-3 was corroborated using gene silencing. Briefly, siRNA were designed to silence Atoh1 (NM 007500.4, NM 005172.1) and β-catenin (NM_007614.2 and NM_001904.3), as shown below: Atoh1:
# 200 nM of each siRNA were transfected using the GeneSilencer™ transfection reagent at 5 μL/mL. Cells were incubated in the presence of the transfection mix for 16 hours and were harvested following a total of 48 hours. Non-targetting siRNA was used as control. Gene silencing was confirmed using RT-PCR. Cells were also transfected with Atoh1, β-catenin, or GFP using the methods described above.
Molecule,"β-catenin expression (Atoh1 and β-catenin; human bone marrow MSCs, DAPT used at 10 μM and 50 μM)",decrease of Atoh1 expression (Atoh1),Atoh1 expression (Atoh1 and β-catenin; MSCs with γ-secretase treatment and siRNA suppression of β-catenin),β-catenin expression levels (Atoh1; all cell types tested)
"C[C@H](NC(=O)Cc1cc(F)cc(F)c1)C(=O)N[C@H](C(=O)OC(C)(C)C)c1ccccc1 [γ-secretase inhibitor, N—[N-(3,5-difluorophenacetyl)-L-alanyl]-(S)-phenylglycine t-butyl ester]",increased,,,
"Atoh1 siRNA: siRNA designed to silence Atoh1, SEQ ID NO:16 (GCAACGUUAUCCCGUCCUUUAACAGCGAUGAUGGCACA; listed as RNA, chemistry not given here)",,about 45%,,
"β-catenin siRNA: siRNA designed to silence β-catenin, SEQ ID NO:17 (GCGCUUGGCUGAACCAUCAUUGUGAAAUUCUUGGCUAUUAUU; listed as RNA, chemistry not given here)",,about 40%,reduced,suppressed
